# Laboratory results published in publication PMC4658304 (Nuclear medicine and biology, 2015).
# Several values for one entry are separate records, joined by “and”; a condition that tells them apart may be missing. Identical values can stand only once. Like-named read-outs stand apart in the source and are kept apart here.
# Columns and labels:
# [1] = target: T1, mGluR1 (Macaca mulatta, UniProt I2CU04); conditions: cited from earlier work; for peak uptake in mGluR1-rich cerebellum: rhesus monkey
# [2] = tested on: mGluR1; conditions: read-out: IC50 (mGluR1 affinity); mGluR1 radioligand affinity; cited from earlier work
# [3] = target: T1, mGluR1; test: Two-tissue compartmental modeling of PET data
# [4] = Stability of formulated radioligand in saline containing ethanol; format: physicochemical; conditions: saline containing ethanol (10% v/v), 1 h, room temperature, HPLC
# [5] = cited from earlier work
# [6] = Emergence of radiometabolites in monkey plasma; format: in vivo, rhesus monkey
# [7] = Stability in sodium phosphate buffer; format: physicochemical; conditions: sodium phosphate buffer 0.15 M pH 7.4, 57 min, room temperature, n = 4
# [8] = monkey brain homogenates, 30 min, room temperature
# [9] = target: T1, mGluR1; conditions: baseline
# [10] = Plasma free fraction; format: in vitro ADME; conditions: rhesus monkey plasma, pre-blocked condition (JNJ16259685 3 mg/kg i.v.), n = 3
# [11] = Stability in monkey whole blood and plasma; format: in vitro ADME; conditions: 30 min, room temperature
# T1 sequence (I2CU04 19-1195): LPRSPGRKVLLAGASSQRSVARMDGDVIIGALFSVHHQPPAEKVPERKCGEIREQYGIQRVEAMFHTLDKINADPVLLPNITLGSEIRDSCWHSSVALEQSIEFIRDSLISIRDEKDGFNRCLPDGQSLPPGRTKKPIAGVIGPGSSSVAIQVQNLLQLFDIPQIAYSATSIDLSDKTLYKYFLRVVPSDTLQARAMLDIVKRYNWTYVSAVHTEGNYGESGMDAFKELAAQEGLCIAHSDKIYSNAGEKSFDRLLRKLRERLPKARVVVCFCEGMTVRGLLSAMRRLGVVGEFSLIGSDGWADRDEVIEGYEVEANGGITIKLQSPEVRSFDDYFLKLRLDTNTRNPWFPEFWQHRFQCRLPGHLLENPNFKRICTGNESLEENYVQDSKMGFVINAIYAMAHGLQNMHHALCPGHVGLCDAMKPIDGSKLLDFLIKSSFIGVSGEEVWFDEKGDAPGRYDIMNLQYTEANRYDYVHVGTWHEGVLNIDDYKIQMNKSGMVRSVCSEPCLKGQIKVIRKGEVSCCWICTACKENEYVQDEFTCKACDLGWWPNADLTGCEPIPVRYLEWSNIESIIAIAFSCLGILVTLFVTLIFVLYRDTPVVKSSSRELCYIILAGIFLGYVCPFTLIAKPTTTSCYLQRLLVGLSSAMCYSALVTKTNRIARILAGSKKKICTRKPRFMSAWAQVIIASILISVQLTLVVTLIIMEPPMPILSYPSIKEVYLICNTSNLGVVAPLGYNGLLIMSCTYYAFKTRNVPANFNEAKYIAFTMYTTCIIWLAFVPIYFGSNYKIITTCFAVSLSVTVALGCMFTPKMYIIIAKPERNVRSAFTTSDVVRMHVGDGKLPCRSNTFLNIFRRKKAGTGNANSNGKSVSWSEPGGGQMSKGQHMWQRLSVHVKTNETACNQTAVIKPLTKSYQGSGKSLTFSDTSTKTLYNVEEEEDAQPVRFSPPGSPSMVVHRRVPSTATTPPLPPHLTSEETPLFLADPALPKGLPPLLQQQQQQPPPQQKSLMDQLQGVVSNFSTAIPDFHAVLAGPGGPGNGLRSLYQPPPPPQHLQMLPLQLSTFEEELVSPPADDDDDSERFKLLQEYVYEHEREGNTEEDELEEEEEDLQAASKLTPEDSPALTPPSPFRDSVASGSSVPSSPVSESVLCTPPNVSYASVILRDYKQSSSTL
structure (smiles),measurement,setting,value
"Cc1ccc(C(=O)N(C)c2nc(-c3cc(NC(C)C)ncn3)cs2)cc1 [[^11C]ITDM, [^11C]N-[4-[6-(isopropylamino)pyrimidin-4-yl]-1,3-thiazol-2-yl]-4-methyl-N-methylbenzamide]",peak uptake in mGluR1-rich cerebellum,[1],< 1.3 SUV
"COc1ccc(C(=O)N(C)c2nc(-c3cc(NC(C)C)ncn3)cs2)cc1 [[^11C]ITMM, [^11C]N-[4-[6-(isopropylamino)pyrimidin-4-yl]-1,3-thiazol-2-yl]-4-methoxy-N-methylbenzamide]",peak uptake in mGluR1-rich cerebellum,[1],< 1.3 SUV
"CNc1cc(-c2csc(N(C)C(=O)c3ccc([18F])cc3)n2)ncn1 [[^18F]FIMX, [^18F]4-fluoro-N-methyl-N-(4-(6-(methylamino)pyrimidin-4-yl)thiazol-2-yl)benzamide]",IC50,[2],1.8 nM
same,decrease of cerebellum radioactivity from peak,[1]; at 90 min after injection,37%
"CNc1cc(-c2csc(N(C)C(=O)c3ccc(F)cc3)n2)ncn1 [[^11C]FIMX, [carbonyl-^11C]4-Fluoro-N-methyl-N-(4-(6-(methylamino)pyrimidin-4-yl)thiazol-2-yl)benzamide]",imaging time after which VT appeared stable in all brain regions,[3]; baseline,60 min
same,imaging time by which VT is within 10% of terminal value,"[3]; baseline scans, two-tissue compartment model",≤ 40 min
same,reduction of VT in cerebellum by preblock,[3]; baseline vs preblock with JNJ16259685,~90%
same,VT in cerebellum,"[3]; rhesus monkey cerebellum, baseline",13 mL/cm^3
same,unchanged radioligand in formulation,[4],> 97%
same,logD obtained without correction for instability,[5],2.52
same,percentage of total plasma radioactivity represented by parent,"[6]; baseline, 10 min after i.v. injection",31%
same,percentage of total plasma radioactivity represented by parent,"[6]; baseline, 30 min after i.v. injection",21%
same,percentage of total plasma radioactivity represented by parent,"[6]; preblocked condition, 10 min after i.v. injection",43%
same,percentage of total plasma radioactivity represented by parent,"[6]; preblocked condition, 30 min after i.v. injection",31%
same,remaining fraction of original radiochemical purity in buffer,[7],79.1 ± 3.3%
same,unchanged radioligand in brain homogenates,[8],99.4%
same,peak radioactivity uptake in frontal cortex,[9],4.23 SUV
same,peak radioactivity uptake in hippocampus,[9],4.47 SUV
same,peak radioactivity uptake in occipital cortex,[9],3.67 SUV
same,peak radioactivity uptake in thalamus,[9],6.00 SUV
same,cerebellum radioactivity level at 85 min,[9]; 85 min after injection,5.74 SUV
same,decrease of cerebellum radioactivity from peak,[9]; at 85 min after injection,32%
same,time of peak regional brain radioactivity uptake,[9]; i.v.,around 12.5 min
same,peak radioactivity uptake in cerebellum,[9]; receptor-rich cerebellum,8.50 SUV and 8.5 SUV
same,plasma free fraction (fP),[10],0.042 ± 0.003
same,unchanged radioligand in plasma,[11]; monkey plasma,91%
same,unchanged radioligand in whole blood,[11]; monkey whole blood,92%
